The values that follow come from US11999727B2 (Tango Therapeutics, Inc., priority 2020, dated 2024).

Assay [1] has as its target T1, PRMT5 (Homo sapiens, UniProt O14744).
T1 construct: purchased Viva (custom protein)
Description: PRMT5 biochemical IC50 assay with SAM as cofactor. As to conditions: PRMT5, SAM as cofactor; read-out: SAM IC50.

The target of assay [2] is T1, PRMT5. In words: PRMT5 biochemical IC50 assay with MTA as cofactor. The note with it: PRMT5, MTA as cofactor; read-out: MTA IC50.
In assay [3] the test system is HAP1 MTAP-intact cell line. Description: SDMA in-cell western assay, HAP1 MTAP-intact. The note with it: HAP1 MTAP-intact, read-out: MTAP HAP1 intact IC50. Type of assay: cell-based. The essentials: (§1)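 Readout: in-cell western detection of SDMA. Cells: HAP1 expressing endogenous MTAP and an MTAP-null HAP1 counterpart. Output: IC50.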
Assay [4] has as its target T1, PRMT5. In words: PRMT5 biochemical IC50 assay with no cofactor. The note with it: PRMT5, no cofactor. An excerpt:
Table 1 indicates IC50 values (μM) against PRMT5 for exemplary compounds in the presence of SAM as cofactor, with no cofactor, and with MTA as cofactor, respectively (columns 4-6). […] Ki values can be calculated from the IC50 values as described in the Examples section. As detailed in the Examples section, for the assay performed in the presence of SAM, IC50=Ki×1.5 (Ki=IC50/1.5).

The subject of assay [5] is HAP1 MTAP-deleted cell line. Description: SDMA in-cell western assay, HAP1 MTAP-deleted. Type of assay: cell-based. The note with it: for pIC50: HAP1 MTAP-deleted. The gist of the method:
as §1

Assay [6] has as its system HAP1 MTAP-deleted cell line. Description: Viability assay, MTAP-deleted cell line. The format is cell-based. The note with it: read-out: HAP1 MTAP deleted viability. An excerpt: Table 1 additionally indicates IC50 values in a viability assay for the MTAP-deleted cell line (column 10), indicating the effect of treatment with compound on cell survival.
[7] abbreviates: read-out: No Cofactor/ rel IC50.
The mark [8] stands for this setting: IC50 ratio HAP1 MTAP-intact / HAP1 MTAP-deleted, SDMA in-cell western.
[9] abbreviates: Homo sapiens, HAP1, SDMA in-cell western.
Setting [10] is: Homo sapiens, HAP1, SDMA in-cell western, read-out: HAP1 MTAP deleted IC50.
The mark [11] stands for this setting: IC50 ratio HAP1 MTAP-intact vs HAP1 MTAP-deleted, SDMA in-cell western.
Where [12] appears, read: Homo sapiens, HAP1, viability assay, MTAP-deleted cell line.
Setting [13] is: Homo sapiens, HAP1, viability assay, HAP1 MTAP-deleted.
The mark [14] stands for this setting: Homo sapiens, HAP1, SDMA in-cell western, read-out: HAP 1 MTAP deleted IC50.

Molecules are shown by their SMILES. pIC50: −log10 of the molar value. Like-named read-outs stand apart in the source and are kept apart here.

T1 sequence (O14744 whole entry): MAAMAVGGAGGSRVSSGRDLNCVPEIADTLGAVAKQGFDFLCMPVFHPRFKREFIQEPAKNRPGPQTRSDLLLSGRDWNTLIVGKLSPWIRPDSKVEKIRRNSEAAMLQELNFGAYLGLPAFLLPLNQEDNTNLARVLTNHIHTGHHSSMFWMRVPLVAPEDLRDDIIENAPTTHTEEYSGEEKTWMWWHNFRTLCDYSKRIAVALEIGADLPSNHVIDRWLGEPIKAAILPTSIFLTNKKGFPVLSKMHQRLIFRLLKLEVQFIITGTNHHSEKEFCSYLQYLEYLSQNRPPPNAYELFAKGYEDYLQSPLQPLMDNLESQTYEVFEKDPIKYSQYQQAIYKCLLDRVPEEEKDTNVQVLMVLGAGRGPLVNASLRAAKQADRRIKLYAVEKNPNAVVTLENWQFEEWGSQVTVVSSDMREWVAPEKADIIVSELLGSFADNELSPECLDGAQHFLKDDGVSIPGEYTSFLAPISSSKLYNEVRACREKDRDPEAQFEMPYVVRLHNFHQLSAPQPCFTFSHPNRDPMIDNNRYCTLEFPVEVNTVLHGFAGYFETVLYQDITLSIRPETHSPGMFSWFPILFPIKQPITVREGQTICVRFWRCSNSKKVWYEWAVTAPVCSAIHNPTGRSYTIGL
T1 sequence (Q9BQA1 whole entry partner): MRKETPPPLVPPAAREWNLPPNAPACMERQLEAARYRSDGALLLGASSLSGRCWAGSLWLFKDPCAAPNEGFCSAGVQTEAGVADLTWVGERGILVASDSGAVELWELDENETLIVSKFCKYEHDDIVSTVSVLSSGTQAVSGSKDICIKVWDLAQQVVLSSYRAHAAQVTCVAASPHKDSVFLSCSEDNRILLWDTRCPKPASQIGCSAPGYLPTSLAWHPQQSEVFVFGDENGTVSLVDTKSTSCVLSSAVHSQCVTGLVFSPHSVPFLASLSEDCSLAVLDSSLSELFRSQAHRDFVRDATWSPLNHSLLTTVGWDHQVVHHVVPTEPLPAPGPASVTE

For `CC(=O)N1CCC(c2cccc(C3CCCCN3C(=O)C(=O)Nc3cnc(N)c(C)c3)c2)CC1` (single isomer, unassigned) [Compound 96], the pIC50 at PRMT5 [1] was 6.30 to 7.30; at PRMT5 [2], above 7.30; in assay [3] (SDMA in-cell western), below 6.00; on PRMT5 [4] (setting [7]), 6.30 to 7.30; in assay [5] (SDMA in-cell western, read-out: HAP 1 MTAP deleted IC50) it was 6.00 to 7.00; in assay [6] (viability assay, MTAP-deleted cell line) it was below 5.00. Also, in assay [5] (setting [8]), the “MTAP intact/deleted ratio” value is recorded as “A (an IC50 ratio greater than or equal to 10 fold)”.

With `CCc1cc(NC(=O)C(=O)N2C[C@@H](C)CC[C@@H]2c2ccc3cn(C4CCN(C)CC4)nc3c2)cnc1N` (racemic) [Compound 1096, N-(6-Amino-5-ethyl-3-pyridyl)-2-oxo-2-[rac-(2R,5S)-5-methyl-2-[2-(1-methyl-4-piperidyl)indazol-6-yl]-1-piperidyl]acetamide], the pIC50 is above 7.30 on PRMT5 [1]; above 7.30 on PRMT5 [2]; above 7.00 in assay [3] (setting [9]); above 7.30 on PRMT5 [4] (read-out: No Cofactor/rel IC50); above 7.00 in assay [5] (setting [10]); above 6.00 in assay [6] (setting [12]). Besides, the MTAP intact/deleted ratio entry in assay [5] (setting [11]) is “A (an IC50 ratio greater than or equal to 10 fold)”.

Take `Cc1c(NC(=O)C(=O)N2C[C@@H](C)CC[C@@H]2c2ccccc2)cnc(N)c1C` (single isomer, unassigned) [Compound 368]: the pIC50 at PRMT5 [1] is 6.30 to 7.30; at PRMT5 [2], above 7.30; in assay [3] (setting [9]), below 6.00; on PRMT5 [4] (read-out: No Cofactor/rel IC50), 6.30 to 7.30; in assay [5] (setting [10]), above 7.00; in assay [6] (setting [12]) it was 5.00 to 6.00. Also, the MTAP intact/deleted ratio result in assay [5] (setting [8]) is recorded as “A (an IC50 ratio greater than or equal to 10 fold)”.

`CC(=O)N1CCC([C@@H]2CC[C@@H](C)CN2C(=O)C(=O)Nc2cnc(N)c(C)c2)CC1` (racemic) [Compound 737, 2-[(2R,5S)-2-(1-acetyl-4-piperidyl)-5-methyl-1-piperidyl]-N-(6-amino-5-methyl-3-pyridyl)-2-oxo-acetamide]: the pIC50 at PRMT5 [1] was below 6.30; on PRMT5 [2] it was 6.30 to 7.30; in assay [3] (setting [9]), below 6.00; on PRMT5 [4] (read-out: No Cofactor/rel IC50), 6.30 to 7.30; in assay [5] (setting [10]), below 6.00; in assay [6] (setting [13]) it was below 5.00. Also, the MTAP intact/deleted ratio result in assay [5] (setting [8]) is “B (an IC50 ratio greater than or equal to 3 fold but lower than 10 fold)”.

In the case of `C[C@@H]1CC[C@@H](c2ccc3nn(CCN(C)C)cc3c2)N(C(=O)C(=O)Nc2cnc(N)c(C3CC3)c2)C1` (single isomer, unassigned) [Compound 1156], the pIC50 on PRMT5 [1] is above 7.30; on PRMT5 [2] it was above 7.30; in assay [3] (setting [9]) it was above 7.00; at PRMT5 [4] (read-out: No Cofactor/rel IC50), above 7.30; in assay [5] (setting [10]), above 7.00; in assay [6] (setting [12]), above 6.00. The MTAP intact/deleted ratio result in assay [5] (setting [11]) is “A (an IC50 ratio greater than or equal to 10 fold)”.

Consider `CC(=O)N[C@H]1CCN(C(=O)C(=O)Nc2cncc(C(N)=O)c2)[C@@H](c2ccccc2)C1` (racemic) [Compound 745, 5-[[2-[(2R,4S)-4-acetamido-2-phenyl-1-piperidyl]-2-oxo-acetyl]amino]pyridine-3-carboxamide], for which the pIC50 on PRMT5 [1] was below 6.30; on PRMT5 [2], 6.30 to 7.30; in assay [3] (setting [9]) it was below 6.00; on PRMT5 [4] (read-out: No Cofactor/rel IC50), below 6.30; in assay [5] (setting [10]), below 6.00; in assay [6] (setting [13]) it was below 5.00. The MTAP intact/deleted ratio result in assay [5] (setting [8]) is “C (an IC50 ratio of less than 3 fold)”.

As to `CCc1cc(NC(=O)C(=O)N2C[C@@H](C)CC[C@@H]2c2ccc(C(=O)NC)s2)cnc1N` (single isomer, unassigned) [Compound 840], the pIC50 was 6.30 to 7.30 on PRMT5 [1]; above 7.30 on PRMT5 [2]; 6.00 to 7.00 in assay [3] (setting [9]); above 7.30 on PRMT5 [4] (read-out: No Cofactor/rel IC50); above 7.00 in assay [5] (setting [10]); above 6.00 in assay [6] (setting [13]). In assay [5] (setting [8]), the MTAP intact/deleted ratio entry is on record as “A (an IC50 ratio greater than or equal to 10 fold)”.

As to `Cc1cc(NC(=O)C(=O)N2C[C@H](C)CC[C@H]2c2ccc3[nH]ncc3n2)cnc1N` (single isomer, unassigned) [Compound 788], the pIC50 on PRMT5 [1] is 6.30 to 7.30; at PRMT5 [2], above 7.30; in assay [3] (setting [9]) it was 6.00 to 7.00; at PRMT5 [4] (read-out: No Cofactor/rel IC50), above 7.30; in assay [5] (setting [10]), above 7.00; in assay [6] (setting [13]), above 6.00. Besides, the MTAP intact/deleted ratio entry in assay [5] (setting [8]) was “A (an IC50 ratio greater than or equal to 10 fold)”.

In the case of `Cc1cc(NC(=O)C(=O)N2CCCC[C@H]2c2cccc(N(C)C)c2)cnc1N` (single isomer, unassigned) [Compound 384], the pIC50 on PRMT5 [1] was 6.30 to 7.30; on PRMT5 [2], above 7.30; in assay [3] (setting [9]), below 6.00; on PRMT5 [4] (read-out: No Cofactor/rel IC50) it was above 7.30; in assay [5] (setting [10]) it was above 7.00; in assay [6] (setting [12]) it was above 6.00. Further, the MTAP intact/deleted ratio result in assay [5] (setting [8]) is recorded as “A (an IC50 ratio greater than or equal to 10 fold)”.

Consider `CCc1cc(NC(=O)C(=O)N2C[C@@H](C)CC[C@@H]2c2cc(Cl)cc(Cl)c2)cnc1N` (single isomer, unassigned) [Compound 951], for which the pIC50 at PRMT5 [1] was 6.30 to 7.30; on PRMT5 [2], above 7.30; in assay [3] (setting [9]), below 6.00; at PRMT5 [4] (read-out: No Cofactor/rel IC50), above 7.30; in assay [5] (setting [14]) it was above 7.00; in assay [6] (setting [12]), 5.00 to 6.00. In addition, the MTAP intact/deleted ratio result in assay [5] (setting [8]) is “A (an IC50 ratio greater than or equal to 10 fold)”.

Consider `C[C@@H]1C[C@H](c2ccccc2)N(C(=O)C(=O)Nc2cncc(C(N)=O)c2)C[C@H]1C` (racemic) [Compound 231, 5-[[2-[(2R,4R,5S)-4,5-dimethyl-2-phenyl-1-piperidyl]-2-oxo-acetyl]amino]pyridine-3-carboxamide], for which the pIC50 was 6.30 to 7.30 on PRMT5 [1]; above 7.30 on PRMT5 [2]; below 6.00 in assay [3] (setting [9]); 6.30 to 7.30 on PRMT5 [4] (read-out: No Cofactor/rel IC50); 6.00 to 7.00 in assay [5] (setting [10]); below 5.00 in assay [6] (setting [12]). The MTAP intact/deleted ratio result in assay [5] (setting [8]) was “A (an IC50 ratio greater than or equal to 10 fold)”.

On to `Cc1cc(NC(=O)C(=O)N2[C@@H](C)CCC[C@H]2c2ccccc2)cnc1N` (racemic) [Compound 112, N-(6-amino-5-methyl-3-pyridyl)-2-[rac-(2R,6R)-2-methyl-6-phenyl-1-piperidyl]-2-oxo-acetamide], for which the pIC50 on PRMT5 [1] was 6.30 to 7.30; at PRMT5 [2], above 7.30; in assay [3] (setting [9]), 6.00 to 7.00; at PRMT5 [4] (setting [7]), 6.30 to 7.30; in assay [5] (setting [14]), above 7.00; in assay [6] (setting [12]) it was 5.00 to 6.00. In addition, the “MTAP intact/deleted ratio” value in assay [5] (setting [8]) was “B (an IC50 ratio greater than or equal to 3 fold but lower than 10 fold)”.

`Cc1cc(NC(=O)C(=O)N2C[C@H](C)CC[C@H]2c2ccc3c(cnn3CCN(C)C)c2)cnc1N` (single isomer, unassigned) [Compound 1182]: the pIC50 at PRMT5 [1] is above 7.30; on PRMT5 [2], above 7.30; in assay [3] (setting [9]), above 7.00; on PRMT5 [4] (read-out: No Cofactor/rel IC50) it was above 7.30; in assay [5] (setting [10]), above 7.00; in assay [6] (setting [12]), above 6.00. Besides, the MTAP intact/deleted ratio result in assay [5] (setting [11]) is “B (an IC50 ratio greater than or equal to 3 fold but lower than 10 fold)”.

On to `Cc1ncc(NC(=O)C(=O)N2C[C@H](C)CC[C@H]2c2ccc(F)cc2)cc1Cl` (racemic) [Compound 622, N-(5-chloro-6-methyl-3-pyridyl)-2-[(2S,5R)-2-(4-fluorophenyl)-5-methyl-1-piperidyl]-2-oxo-acetamide], for which the pIC50 at PRMT5 [1] is 6.30 to 7.30; on PRMT5 [2], 6.30 to 7.30; in assay [3] (setting [9]) it was below 6.00; at PRMT5 [4] (read-out: No Cofactor/rel IC50), 6.30 to 7.30; in assay [5] (setting [14]) it was below 6.00; in assay [6] (Homo sapiens, HAP1, viability IC50, MTAP-deleted cell line) it was below 5.00. Further, the MTAP intact/deleted ratio result in assay [5] (setting [8]) was “B (an IC50 ratio greater than or equal to 3 fold but lower than 10 fold)”.

On to `COc1ccc([C@@H]2CC[C@@H](C)CN2C(=O)C(=O)Nc2cncc(C(N)=O)c2)cc1OC` (racemic) [Compound 230, rac-5-{2-[(2R,5S)-2-(3,4-Dimethoxyphenyl)-5-methylpiperidin-1-yl]-2-oxoacetamido}pyridine-3-carboxamide], for which the pIC50 on PRMT5 [1] is 6.30 to 7.30; at PRMT5 [2], above 7.30; in assay [3] (setting [9]) it was below 6.00; at PRMT5 [4] (read-out: No Cofactor/rel IC50), 6.30 to 7.30; in assay [5] (setting [10]), 6.00 to 7.00; in assay [6] (setting [12]), 5.00 to 6.00. For the same compound, in assay [5] (setting [8]), the MTAP intact/deleted ratio result is listed as “A (an IC50 ratio greater than or equal to 10 fold)”.
